# Experimental data: article PMC6979384, “Characterization of the plant homeodomain (PHD) reader family for their histone tail interactions” (Epigenetics & Chromatin, 2020)
# Legend:
# Test in all cases: Histone peptide microarray
# Assay type in all cases: binding, human
# Details in all cases: each array performed twice, total n = 4
# BAZ2B = tested on: BAZ2B
# Summary of the method: (§1)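 GST-tagged PHD readers, 0.5 μM, probed on a microarray of 293 synthetic histone peptides carrying single or combinatorial PTMs (optimized Petell protocol). Signals are averaged over 4 replicates and expressed as relative binding.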
# RAG2 = tested on: RAG2
# Summary of the method: as §1
# ING4 = tested on: ING4
# Summary of the method: as §1
# PHF13 = tested on: PHF13
# Summary of the method: as §1
# PHF23 = tested on: PHF23
# Summary of the method: as §1
# ING1 = tested on: ING1
# Summary of the method: as §1
# TAF3 = tested on: TAF3
# Summary of the method: as §1
# KDM5A (3) = tested on: KDM5A (3)
# Summary of the method: as §1
# SP140L = tested on: SP140L
# Summary of the method: as §1
# ING2 = tested on: ING2
# Summary of the method: as §1
# KDM7A = tested on: KDM7A
# Summary of the method: as §1
# CHD4 (PPCC) = tested on: CHD4 (PPCC)
# Summary of the method: as §1
# KDM5A (1) = tested on: KDM5A (1)
# Summary of the method: as §1
# ING3 = tested on: ING3
# Summary of the method: as §1
# KDM4C (TTP) = tested on: KDM4C (TTP)
# Summary of the method: as §1
# PHRF1 (RP) = tested on: PHRF1 (RP)
# Summary of the method: as §1
# PHF2 = tested on: PHF2
# Summary of the method: as §1
# TRIM66 (PB) = tested on: TRIM66 (PB)
# Summary of the method: as §1
# AIRE (PP) = tested on: AIRE (PP)
# Summary of the method: as §1
# ING5 = tested on: ING5
# Summary of the method: as §1
# CHD5 (PCC) = tested on: CHD5 (PCC)
# Summary of the method: as §1
# PHF8 = tested on: PHF8
# Summary of the method: as §1
# MORC3 (CW) = tested on: MORC3 (CW)
# Summary of the method: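 Each reader, produced as a GST fusion and purified, was tested at 0.5 μM on synthetic histone peptides (293 in total) carrying single or combinatorial marks. Intensities averaged over four replicates.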
# DPF2 (PPC2W2) = tested on: DPF2 (PPC2W2)
# Summary of the method: as §1
# MLL5 = tested on: MLL5
# Summary of the method: as §1
# KDM5B (1) = tested on: KDM5B (1)
# Summary of the method: as §1
# CHD5 (PPCC) = tested on: CHD5 (PPCC)
# Summary of the method: as §1
# KDM5B (3) = tested on: KDM5B (3)
# Summary of the method: as §1
# DIDO1 = tested on: DIDO1
# Summary of the method: as §1
# BPTF (PB) = tested on: BPTF (PB)
# Summary of the method: as §1
# PHF21A = tested on: PHF21A
# Summary of the method: as §1
substance,measurement,setting,value
H3K4me1 (1-21): H3 1-21,Array Heatmap value (peptide array signal),"BAZ2B; BAZ2B, sheet ""Array Heatmap""",0.4634
same,Array Heatmap value (peptide array signal),"RAG2; RAG2, sheet ""Array Heatmap""",0.2554
same,Array Heatmap value (peptide array signal),"ING4; ING4, sheet ""Array Heatmap""",0.4485
same,Array Heatmap value (peptide array signal),"PHF13; PHF13, sheet ""Array Heatmap""",0.6202
same,Array Heatmap value (peptide array signal),"PHF23; PHF23, sheet ""Array Heatmap""",0.5596
same,Array Heatmap value (peptide array signal),"ING1; ING1, sheet ""Array Heatmap""",0.559
same,Array Heatmap value (peptide array signal),"TAF3; TAF3, sheet ""Array Heatmap""",0.2643
same,Array Heatmap value (peptide array signal),"KDM5A (3); KDM5A (3), sheet ""Array Heatmap""",0.5345
same,Array Heatmap value (peptide array signal),"SP140L; SP140L, sheet ""Array Heatmap""",0.3636
same,Array Heatmap value (peptide array signal),"ING2; ING2, sheet ""Array Heatmap""",0.622
same,Array Heatmap value (peptide array signal),"KDM7A; KDM7A, sheet ""Array Heatmap""",0.3293
same,Array Heatmap value (peptide array signal),"CHD4 (PPCC); CHD4 (PPCC), sheet ""Array Heatmap""",0.5532
same,Array Heatmap value (peptide array signal),"KDM5A (1); KDM5A (1), sheet ""Array Heatmap""",0.4646
same,Array Heatmap value (peptide array signal),"ING3; ING3, sheet ""Array Heatmap""",0.4698
same,Array Heatmap value (peptide array signal),"KDM4C (TTP); KDM4C (TTP), sheet ""Array Heatmap""",0.468
same,Array Heatmap value (peptide array signal),"PHRF1 (RP); PHRF1 (RP), sheet ""Array Heatmap""",0.5109
same,Array Heatmap value (peptide array signal),"PHF2; PHF2, sheet ""Array Heatmap""",0.5317
same,Array Heatmap value (peptide array signal),"TRIM66 (PB); TRIM66 (PB), sheet ""Array Heatmap""",0.5876
same,Array Heatmap value (peptide array signal),"AIRE (PP); AIRE (PP), sheet ""Array Heatmap""",0.4291
same,Array Heatmap value (peptide array signal),"ING5; ING5, sheet ""Array Heatmap""",0.355
same,Array Heatmap value (peptide array signal),"CHD5 (PCC); CHD5 (PCC), sheet ""Array Heatmap""",0.76
same,Array Heatmap value (peptide array signal),"PHF8; PHF8, sheet ""Array Heatmap""",0.3966
same,Array Heatmap value (peptide array signal),"MORC3 (CW); MORC3 (CW), sheet ""Array Heatmap""",0.4815
same,Array Heatmap value (peptide array signal),"DPF2 (PPC2W2); DPF2 (PPC2W2), sheet ""Array Heatmap""",0.6848
same,Array Heatmap value (peptide array signal),"MLL5; MLL5, sheet ""Array Heatmap""",0.5781
same,Array Heatmap value (peptide array signal),"KDM5B (1); KDM5B (1), sheet ""Array Heatmap""",0.658
same,Array Heatmap value (peptide array signal),"CHD5 (PPCC); CHD5 (PPCC), sheet ""Array Heatmap""",0.5364
same,Array Heatmap value (peptide array signal),"KDM5B (3); KDM5B (3), sheet ""Array Heatmap""",0.4879
same,Array Heatmap value (peptide array signal),"DIDO1; DIDO1, sheet ""Array Heatmap""",0.6834
same,Array Heatmap value (peptide array signal),"BPTF (PB); BPTF (PB), sheet ""Array Heatmap""",0.3509
same,Array Heatmap value (peptide array signal),"PHF21A; PHF21A, sheet ""Array Heatmap""",0.4499
H3K4me2 + K9ac + K18ac: H3 1-20,Array Heatmap signal (histone peptide microarray),"BAZ2B; GST-tagged BAZ2B, sheet Array Heatmap",0.4481
same,Array Heatmap signal (histone peptide microarray),"RAG2; GST-tagged RAG2, sheet Array Heatmap",0.3927
same,Array Heatmap signal (histone peptide microarray),"ING4; GST-tagged ING4, sheet Array Heatmap",0.4671
same,Array Heatmap signal (histone peptide microarray),"PHF13; GST-tagged PHF13, sheet Array Heatmap",0.5893
same,Array Heatmap signal (histone peptide microarray),"PHF23; GST-tagged PHF23, sheet Array Heatmap",0.6826
same,Array Heatmap signal (histone peptide microarray),"ING1; GST-tagged ING1, sheet Array Heatmap",0.6509
same,Array Heatmap signal (histone peptide microarray),"TAF3; GST-tagged TAF3, sheet Array Heatmap",0.4004
same,Array Heatmap signal (histone peptide microarray),"KDM5A (3); GST-tagged KDM5A (3), sheet Array Heatmap",0.7199
same,Array Heatmap signal (histone peptide microarray),"SP140L; GST-tagged SP140L, sheet Array Heatmap",0.3079
same,Array Heatmap signal (histone peptide microarray),"ING2; GST-tagged ING2, sheet Array Heatmap",0.7129
same,Array Heatmap signal (histone peptide microarray),"KDM7A; GST-tagged KDM7A, sheet Array Heatmap",0.3188
same,Array Heatmap signal (histone peptide microarray),"CHD4 (PPCC); GST-tagged CHD4 (PPCC = Dual PHD + Dual Chromodomain), sheet Array Heatmap",0.5347
same,Array Heatmap signal (histone peptide microarray),"KDM5A (1); GST-tagged KDM5A (1), sheet Array Heatmap",0.4202
same,Array Heatmap signal (histone peptide microarray),"ING3; GST-tagged ING3, sheet Array Heatmap",0.5192
same,Array Heatmap signal (histone peptide microarray),"KDM4C (TTP); GST-tagged KDM4C (TTP = Tandem Tudor domain + PHD), sheet Array Heatmap",0.4492
same,Array Heatmap signal (histone peptide microarray),"PHRF1 (RP); GST-tagged PHRF1 (RP), sheet Array Heatmap",0.5931
same,Array Heatmap signal (histone peptide microarray),"PHF2; GST-tagged PHF2, sheet Array Heatmap",0.8135
same,Array Heatmap signal (histone peptide microarray),"TRIM66 (PB); GST-tagged TRIM66 (PB = PHD + Bromodomain), sheet Array Heatmap",0.6398
same,Array Heatmap signal (histone peptide microarray),"AIRE (PP); GST-tagged AIRE (PP), sheet Array Heatmap",0.3953
same,Array Heatmap signal (histone peptide microarray),"ING5; GST-tagged ING5, sheet Array Heatmap",0.3511
same,Array Heatmap signal (histone peptide microarray),"CHD5 (PCC); GST-tagged CHD5 (PCC = PHD + Dual Chromodomain), sheet Array Heatmap",0.7098
same,Array Heatmap signal (histone peptide microarray),"PHF8; GST-tagged PHF8, sheet Array Heatmap",0.4748
same,Array Heatmap signal (histone peptide microarray),"MORC3 (CW); GST-tagged MORC3 (CW = CW-type Zn-finger), sheet Array Heatmap",0.6581
same,Array Heatmap signal (histone peptide microarray),"DPF2 (PPC2W2); GST-tagged DPF2 (PPC2W2 = Dual PHD + C2W2-type Zn-finger), sheet Array Heatmap",0.6346
same,Array Heatmap signal (histone peptide microarray),"MLL5; GST-tagged MLL5, sheet Array Heatmap",0.5921
same,Array Heatmap signal (histone peptide microarray),"KDM5B (1); GST-tagged KDM5B (1), sheet Array Heatmap",0.595
same,Array Heatmap signal (histone peptide microarray),"CHD5 (PPCC); GST-tagged CHD5 (PPCC = Dual PHD + Dual Chromodomain), sheet Array Heatmap",0.5253
same,Array Heatmap signal (histone peptide microarray),"KDM5B (3); GST-tagged KDM5B (3), sheet Array Heatmap",0.5774
same,Array Heatmap signal (histone peptide microarray),"DIDO1; GST-tagged DIDO1, sheet Array Heatmap",0.8235
same,Array Heatmap signal (histone peptide microarray),"BPTF (PB); GST-tagged BPTF (PB = PHD + Bromodomain), sheet Array Heatmap",0.3833
same,Array Heatmap signal (histone peptide microarray),"PHF21A; GST-tagged PHF21A, sheet Array Heatmap",0.4382
